Results from article PMC5768343, “A natural inhibitor of kidney-type glutaminase: a withanolide from Physalis pubescens with potent anti-tumor activity” (Oncotarget, 2017).

How the values were obtained:
[1] = test system: human fibrosarcoma cells (HT1080); assay: CCK8 cytotoxicity assay, HT1080; assay type: cell-based; conditions: HT-1080, CCK8, 48 h
Protocol: The SW1990, HT1080, and A375-S2 human tumor cell lines were obtained from ATCC (Manassas, VA, USA). […] SW1990, HT1080, and LO2 cells were cultured in DMEM medium with 10% fetal bovine serum (FBS). All of these cells were cultured at 37°C in a humidified atmosphere with 5% CO2. To estimate cell viability, cells (5000/well) were separately seeded in 96-well plates for 24 h at 37°C in a 5% CO2 incubator. […] All the experiments were performed in triplicate, and the mean absorbance values were calculated. The IC50 values of the compounds were derived from the mean OD values of the triplicate tests versus the drug concentration curves.

[2] = test system: glutamine metabolism in SW1990 cells; assay: Intracellular metabolite levels and NADPH/NADP+, SW1990; assay type: cell-based, human; conditions: SW1990, 2.5 or 5 μM, 4 hours
Protocol: Blocking glutamine metabolism can inhibit the growth and proliferation of glutamine-dependent cells, mainly because of blocking the production and utilization of glutamine metabolites. The effects of different concentrations of physapubescin K on the intracellular glutamine and its downstream metabolites were examined. […] And the same effect could also be seen in Hcc827-ER cells (Figure 7C).
NADPH/NADP^+ ratio was determined by using NADP^+/NADPH Quantification Colorimetric Kit (BioVision, #K347-100). The abundance of intracellular glutamine (KeyGen, Nanjing, China A124), glutamate (KeyGen, Nanjing, China A074), (BioVision, #K778), aspartate (BioVision, #K552), oxaloacetate (BioVision, #K659) and malate (BioVision, #K637) was determined by using quantification kits, according the manufacturer’s instruction. Briefly, 5 × 10^6 cells (10-cm dishes) were collected during log-phase growth by cell scraper, homogenized in 0.2 mL of provided buffers (on ice), and centrifuged at 4°C for 10 min at 13,000 g. Supernatants were deproteinized using 10 K Ultrafiltration tube (Millipore, USA), analyzed and compared to standard curves. The signals obtained were normalized to the protein concentration calculated upon processing a parallel 10-cm dish.

HCC827-ER = assay: EdU and DAPI double staining, combination with erlotinib; assay type: cell-based, human; conditions: 0.5 μM with erlotinib 1, 2, 4, 8 μM
Protocol: The logarithmic growth phase cells were seeded in 24-well plates at 2 × 10^4 ∼ 5 × 10^5 cells per well. After 4–6 h, the medium was removed, the medium containing no or different concentrations of compound was replaced, and 50 μM of EdU was added. 2 h later, the medium was removed, cells washed by PBS. 200 μL of cell fixative (i.e., PBS containing 4% paraformaldehyde) was added and incubated at room temperature for 30 minutes. The solution was discarded and 200 μL of 2 mg/mL glycine was added to each well. After 5 minutes of incubation, the glycine solution was discarded. Each well washed with 200 μL of PBS, rinse for 5 minutes, and PBS was removed. Apollo staining was added to each well with 200 μL of 1 X Apollo® staining solution. After incubation for 30 minutes at room temperature and decolorization, the reaction solution was discarded. Similarly, 200 μL of 1 × Hoechst 33342 solution was added to each well to dye the total DNA. After 30 minutes of incubation at room temperature and the reaction solution was discarded, and then the images were captured and analyzed by fluorescence microscopy.

intracellular KGA = biological target: T1, intracellular KGA (Homo sapiens, UniProt O94925); assay: Cellular thermal shift assay (CETSA) in intact SW1990 cells; assay type: cell-based; conditions: 10 μM, 4 hours, 48°C without compound
T1 construct: endogenous in cells; host or cells: SW1990
T1 sequence (O94925 55-669): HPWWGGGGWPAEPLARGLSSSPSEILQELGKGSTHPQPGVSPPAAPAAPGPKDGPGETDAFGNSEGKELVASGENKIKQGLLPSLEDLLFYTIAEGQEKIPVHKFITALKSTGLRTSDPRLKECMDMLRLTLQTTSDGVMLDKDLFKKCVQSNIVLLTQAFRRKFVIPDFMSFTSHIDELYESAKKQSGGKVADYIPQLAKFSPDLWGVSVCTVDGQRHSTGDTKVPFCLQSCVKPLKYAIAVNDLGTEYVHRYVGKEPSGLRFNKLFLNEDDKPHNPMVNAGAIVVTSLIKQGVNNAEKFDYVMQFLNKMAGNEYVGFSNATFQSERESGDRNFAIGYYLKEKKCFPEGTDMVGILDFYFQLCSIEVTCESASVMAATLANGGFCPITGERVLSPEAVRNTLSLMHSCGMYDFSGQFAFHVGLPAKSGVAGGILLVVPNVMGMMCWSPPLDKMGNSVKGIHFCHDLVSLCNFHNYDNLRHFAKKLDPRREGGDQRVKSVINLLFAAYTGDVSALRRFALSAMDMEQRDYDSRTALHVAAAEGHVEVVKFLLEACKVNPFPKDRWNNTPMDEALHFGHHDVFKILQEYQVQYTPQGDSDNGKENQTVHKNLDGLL
Excerpt: To further investigate the interaction of the compound with KGA, microscale thermophoresis method (MST) was used to assay the binding affinity between physapubescin K and KGA. This technology can quantify protein-protein or protein-small molecule interactions with high sensitivity through detecting fluorescent changes of molecules during thermophoresis. […] However, it was of vital importance to verify whether it could bind with the intracellular KGA. The cellular thermal shift assay (CETSA), which based on the biophysical principle of ligand-induced thermal stabilization of target protein [25], was thus conducted to investigate its affinity with intracellular KGA. […] As shown in Figure 4B and 4C, physapubescin K increased the thermal stability of KGA in intact cells from tolerate temperature of 48°C to temperature of 50°C.
The ability of compounds to interact with, and thereby stabilize the target in intact cells, was analyzed essentially as described by Alshareef A et al.. Briefly, cells cultured in 10-cm tissue culture dishes at about 90% confluence were treated with media containing DMSO or 10 μM physapubescin K for 4 hours. After treatment, cells were detached with cell scraper, collected by centrifugation and subsequently resuspended in PBS. The cell suspension was aliquoted into seven PCR tubes and heated for 3 minutes to 40, 42, 44, 46, 48, 50 or 52°C. […]

SW1990 xenograft = SW1990 xenograft mouse model; assay type: in vivo; conditions: 5 mg/kg intraperitoneal injection daily, P < 0.01, dose-dependent
Protocol: All animal experiments were performed in accordance with the Guide for the Care and Use of Laboratory Animals of Tongji Medical College, Huazhong University of Science and Technology and approved by the Ethics Committee. CB-17/ SCID mice (male, 4 weeks old) were purchased from Beijing HFK Bioscience CO., LTD (Beijing, China). SW1990 cells were inoculated subcutaneously (3 × 10^6 cells) into the left flank of each mouse. Six days later, mice were randomly divided into […] and were injected i.p. daily for 16 days with one of the following treatments: (1) natural saline group (n = 10); (2) 5 mg/Kg physapubescin K (n = 10); (3) 10 mg/Kg physapubescin K (n = 10). The dose volume was 0.1 mL/10 g body weight, and the weights of mice were recorded every day. Meanwhile, the tumor volumes were measured with vernier calipers and calculated by the following formula: (A × B2)/2, where A was length and B was width of the two-dimension tumor. After animals were sacrificed, tumor weights were measured. The inhibition ratio (%) was calculated using the following equation: I% = 100% × [Wtumor (vehicle) − Wtumor (treated)]/Wtumor (vehicle)

CO[C@H]1O[C@@H]([C@@H](C)[C@H]2C[C@H](OC(C)=O)[C@H]3[C@@H]4C[C@H]5O[C@]56[C@@H](O)C=CC(=O)[C@]6(C)[C@H]4CC[C@@]32C)C[C@]2(C)O[C@]12C [physapubescin K]
IC50 [1]: 2850 ± 600 nM | consumption of glutamine [2]: significantly reduce | production of glutamic acid and its downstream metabolites (oxaloacetic acid, aspartic acid, malic acid) [2]: decrease | proportion of NADPH/NADP+ [2]: significantly reduced | sensitivity of HCC827-ER to erlotinib (HCC827-ER): significantly increase the sensitivity | thermal stability of KGA, tolerate temperature (intracellular KGA): 50 °C | growth of the tumor (SW1990 xenograft): significantly inhibit the growth of the tumor
